Paper PMC3481155, “AhR activation underlies the CYP1A autoinduction by A-998679 in rats” (Frontiers in Genetics, 2012)

Experiments:
[1] = system: Cyp1a1; experiment: Cyp1a1 mRNA induction in primary rat hepatocytes; type: cell-based; conditions: 10 μM, 24 h, data not shown
Protocol: Rat hepatocytes were isolated in a perfusion procedure as described previously (Elliget and Kolaja, [1983]; Waring et al., [2001]). The beagle dog hepatocytes were isolated in the same manner, except for adjustment of flow rate and buffer volume to scale to liver size. Cells were plated at a seeding density of 1.0 × 10^6 cells per well on 6-well, collagen-type I coated plates (BD Biosciences, Bedford, MA) in hepatocyte plating medium (Celsis, Baltimore, MD). Cells were allowed to attach for 24 h in a 37°C humidified incubator with a 5% CO2 atmosphere and were dosed for 24 h (rat) or 48 h (dog) with vehicle control [0.1% DMSO (v/v)] or 10 μM A-998679 in fresh treatment media (Celsis hepatocyte incubation media) every 24 h. After the last incubation, cells were lysed in 1 ml of Qiazol (Qiagen) and stored at −80°C until RNA isolation. Cryopreserved human hepatocytes (donor designation Hu4198; Invitrogen Life Technologies, Carlsbad, CA) were thawed and plated according to the manufacturer's protocol and allowed to incubate for 24 h. […]
RNA samples were diluted with RNase-free molecular biology grade water to a concentration of 20 ng/μl total RNA. […] Results were analyzed by calculating the fold change of CYP1A1 and/or CYP1A2 mRNA levels normalized to 28S rRNA (ΔΔ Ct) in compound treated cells or tissues compared to vehicle levels. […]

[2] = system: Cyp1a1; experiment: Cyp1a1 mRNA in rat small intestine (jejunum); type: in vivo
Protocol: All animal experiments were conducted in accordance with the Guiding Principles in the Use of Animals in Toxicology (http://www.toxicology.org/ai/air/air6.asp) and were approved by Abbott's Institutional Animal Care and Use Committee (IACUC). Male Sprague-Dawley rats [Crl:CD®(SD)IGS BR], weighing ~250 g at study initiation were obtained from Charles River Laboratories, Inc. (Wilmington, MA). Rats were housed singly in ventilated, stainless steel, wire-bottom hanging cages and fed non-certified Rodent Chow (Harlan Labs, Madison, WI), and water ad libitum and acclimated for at least 5 days after arrival. […] Serum clinical chemistry parameters were quantified using an Aeroset Clinical Chemistry Analyzer (Abbott Laboratories, Abbott Park, IL) and included alanine amino transferase (ALT), aspartate amino transferase (AST), gamma glutamyltransferase (GGT), and alkaline phosphatase (ALP) activities.
Frozen liver or jejunum were immediately added to 4 ml of TRIzol reagent (Invitrogen Life Technologies) and homogenized using a Polytron 300D homogenizer (Brinkman Instruments, Westbury, NY). […] Nucleic acid concentration was determined by OD 260 nm (Smart-Spec, Bio-Rad Laboratories, Hercules, CA), and RNA integrity was evaluated using an Agilent 2100 bioanalyzer (Agilent Technologies, Foster City, CA). […]

[3] = biological target: T1, CYP2C9 (Homo sapiens, UniProt P11712); experiment: CYP inhibition evaluation in human liver microsomes, CYP2C9 (diclofenac); type: in vitro ADME; conditions: probe substrate diclofenac
T1 construct: from tissue; host or cells: human liver microsomes
T1 sequence (P11712 whole entry): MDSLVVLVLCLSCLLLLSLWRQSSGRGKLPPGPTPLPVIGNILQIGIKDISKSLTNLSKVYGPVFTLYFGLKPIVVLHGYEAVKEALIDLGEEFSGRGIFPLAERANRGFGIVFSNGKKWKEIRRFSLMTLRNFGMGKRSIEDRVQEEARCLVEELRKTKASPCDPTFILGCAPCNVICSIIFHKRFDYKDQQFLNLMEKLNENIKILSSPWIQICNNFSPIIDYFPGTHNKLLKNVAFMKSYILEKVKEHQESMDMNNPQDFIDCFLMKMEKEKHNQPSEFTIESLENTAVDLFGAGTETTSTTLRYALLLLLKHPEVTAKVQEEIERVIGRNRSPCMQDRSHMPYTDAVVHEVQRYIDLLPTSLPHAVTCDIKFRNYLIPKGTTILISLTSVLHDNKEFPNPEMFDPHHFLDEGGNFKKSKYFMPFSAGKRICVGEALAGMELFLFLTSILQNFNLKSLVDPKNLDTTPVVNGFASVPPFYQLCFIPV
Protocol: Incubations were performed in human liver microsomes using probe substrate concentrations similar to their corresponding Km values. Enzyme activity was evaluated in the presence of various concentrations of A-998679. The incubations consisted of the test article at varying concentrations (0–30 μM), probe substrate (concentration ~Km, see Table A2), human liver microsomal protein and 1 mM NADPH in 50 mM phosphate buffer at pH 7.4. Relative quantitation of the metabolites was obtained by LC-MS/MS using an ABSciex (Foster City, CA) API3000 or API4000 Qtrap hybrid linear ion trap mass spectrometer equipped with a TurboIonspray source using either PerkinElmer series 200 pumps or Agilent 1100 series pump with a Leap autosampler. Analytes were separated using a Phenomenex Prodigy ODS(3) 5 μm, 50 × 2.0 mm column at 50°C, eluted and detected under the specific conditions listed in Tables A3, A4, and A5. The analyte to internal standard peak area ratios were determined using Analyst 1.4 software (Applied Biosytems, Carlsbad, CA). The peak area ratios observed in the presence of test article were compared to the vehicle control in order to determine percent activity. To determine the IC50, the data were plotted as Log [dose] μM vs. % inhibition, and analyzed with a sigmoidal dose-response (variable slope) fitting equation. […]

- Cyp1a1 mRNA induction [1]: also observed
- Cyp1a1 mRNA expression in rat jejunum ([2]; 200 mg/kg): significantly decreased
- Cyp1a1 mRNA expression in rat jejunum ([2]; 30 and 100 mg/kg, high interindividual variability): increased
- IC50 [3]: > 30 µM
Compound: N#Cc1cccc(-c2noc(-c3cccnc3)n2)c1 [A-998679, 3-(5-pyridin-3-yl-1,2,4-oxadiazol-3-yl) benzonitrile]
